Source: US20200232989A1 (UNIVERSITE D'AIX-MARSEILLE, priority 2017, published 2020)

What was measured:
sCD146 = assay: ELISA of sCD146 protein in 786/786R cell supernatants; assay type: cell-based; conditions: 786R cells; 10 μg/ml, 48 hr
Procedure: D, sCD146 protein in cell supernatants was evaluated by ELISA. […] Results are represented as the mean of three independent experiments±SEM.* p<0.05, ** p<0.01, *** p<0.001.
A, 786 and 786R cells were treated with 10 μg/ml BVZ for 48 hr. sCD146 protein in cell supernatants were evaluated by ELISA. […] Results are represented as the mean of three independent experiments±SEM. * p<0.05, ** p<0.01, *** p<0.001.

[1] = Survival (PFS, OS) of metastatic ccRCC patients in the prospective cohort (SUVEGIL and TORAVA trials), split by sCD146 variation; assay type: in vivo, human
Text: Eligible patients for SUVEGIL and TORAVA trials were at least 18 years of age and had metastatic clear cell renal cell carcinoma (ccRCC) histologically confirmed, with the presence of measurable disease according to Response Evaluation Criteria in Solid Tumors (RECIST) v1.1. […] Patients were ineligible if they had symptomatic or uncontrolled brain metastases, an estimated lifetime less than 3 months, uncontrolled hypertension or clinically significant cardiovascular events (heart failure, prolongation of the QTinterval), history of other primary cancer. All patients gave written informed consent.
The prospective cohort includes patients from the SUVEGIL and TORAVA trials.
The SUVEGIL trial (clinicaltrial.gov, NCT00943839) was a multicenter prospective single-arm study. […] Courses repeat every 6 weeks in the absence of disease progression or unacceptable toxicity.
The TORAVA trial (clinicaltrial.gov, NCT00619268) was a randomized prospective study. Patient characteristics and results have been previously described (Negrier et al, 2011).
The % variation of plasmatic level of sCD146 was correlated with OS and PFS, defined respectively as the time from inclusion in the trial to death from all causes (for OS) and to progression, treatment cessation, or death (for PFS), censored at last follow-up for those still alive or who have not progressed.
(§1) PFS was defined as the time between blood sample collection and progression, or death from any cause, censoring those alive and progression free at last follow-up. OS was defined as the time from blood sample collection to the date of death from any cause, censoring those alive at last follow-up.
(§2) The % variation of sCD146 between diagnosis and after 1 cycle of suntinib cut-off point was determined at 120%. Kaplan Meier method was used to produce survival curves and analyses of censored data were performed using Cox models.

786 cells = assay: Cell viability/metabolism (XTT) in 786 cells; assay type: cell-based; conditions: sCD146 50 and 100 ng/ml, 48 h
Procedure: FIG. 4. […] The mRNA levels of CD146 total (A), long (B) and short forms (C) and angiomotin (E) were evaluated by qPCR. D, sCD146 protein in cell supernatants was evaluated by ELISA. […] The cell metabolism was measured by XTT assay. Results are represented as the mean of three independent experiments±SEM.* p<0.05, ** p<0.01, *** p<0.001.
(§3) Fifty microliters of sodium 3′-[1-phenylaminocarbonyl)-3,4-tetrazolium]-bis(4-methoxy-6-nitro) benzene sulfonic acid hydrate (XTT) reagent was added to each well. The assay is based on the cleavage of the yellow tetrazolium salt XTT to form an orange formazan dye by metabolically active cells. The absorbance of the formazan product, reflecting cell viability, was measured at 490 nm. Each assay was performed in quadruplicate.

HUVEC = assay: Cell viability/metabolism (XTT) in HUVEC; assay type: cell-based; conditions: 48 h
Procedure: FIG. 7. Regulation of expression of CD146 and angiomotin (Amot) is differently regulated in endothelial cells. […] CD146 (A) and angiomotin (B) were analyzed by qPCR. […] The cell metabolism was measured by XTT assay. […] The cell metabolism was measured by XTT assay. Results are represented as the mean of three independent experiments±SEM. * p<0.05, ** p<0.01, *** p<0.001.
as §3

[2] = PFS of patients in the retrospective validation cohort, split by sCD146 variation; assay type: in vivo, human; conditions: retrospective/confirmation cohort
Procedure: 13 patients from the HEPG (France) (50 mg/day, once daily for four weeks) were analyzed retrospectively.
as §1, §2

[3] = patients with sCD146 plasmatic level increase ≥120% between diagnosis and first cycle of treatment
[4] = patients with sCD146 variation <120% between diagnosis and first cycle of treatment

Compound | sCD146 secretion (sCD146) | median OS ([1]; patients with sCD146 <120%) [months] | median PFS [1, 3] [months] | median PFS [1, 4] [months] | median OS ([1]; patients with sCD146 ≥120%) [months] | effect on sunitinib-dependent decrease of cell metabolism (786 cells; 786 cells treated with 2.5 or 5 μM sunitinib) | cell metabolism (786 cells; 786 cells) | protection from sunitinib (HUVEC; HUVEC treated with sunitinib, recombinant sCD146 50 or 100 ng/ml) | proliferation of HUVEC (HUVEC; HUVEC, recombinant sCD146 50 or 100 ng/ml) | decrease in cell proliferation (HUVEC; HUVEC, 1 or 2 μM) | PFS ([2]; patients with modulation of sCD146 <120%) [months] | PFS ([2]; patients with sCD146 ≥120%) [months]
bevacizumab | no increase in sCD146 secretion | 24.4 | 10.5 | 10.7 | 24.1 | – | – | – | – | – | – | –
sCD146: soluble form of CD146 generated by shedding of the membrane form; used as recombinant protein in cell assays | – | – | – | – | – | prevents sunitinib-dependent decreased cell metabolism | increased cell metabolism at both concentrations | did not protect HUVEC from sunitinib | stimulated the proliferation of HUVEC | – | – | –
CCN(CC)CCNC(=O)c1c(C)[nH]c(/C=C2\C(=O)Nc3ccc(F)cc32)c1C [sunitinib] | – | – | 5.7 | 20.5 | 11 | – | – | – | – | about 50% | 24.8 | 2.3
